In PMC10531311, “Anti-Inflammatory Activities of 8-Benzylaminoxanthines Showing High Adenosine A2A and Dual A1/A2A Receptor Affinity” (International Journal of Molecular Sciences, 2023):

Legend:
human adenosine A2BR = molecular target: T1, human adenosine A2BR (Homo sapiens, UniProt P29275); assay: Radioligand binding at human adenosine A2B receptor vs. [3H]PSB-603; settings: for inhibition at 1 µM: CHO cells, read-out: A2BR vs. [³H]PSB-603 % Inhibition ± SEM at 1 µM; for Ki: human recombinant receptor in CHO cells, read-out: A2BR vs. [³H]PSB-603 Ki ± SEM
T1 construct: expressed in transfected cells; host or cells: CHO cells
T1 sequence (P29275 1-332): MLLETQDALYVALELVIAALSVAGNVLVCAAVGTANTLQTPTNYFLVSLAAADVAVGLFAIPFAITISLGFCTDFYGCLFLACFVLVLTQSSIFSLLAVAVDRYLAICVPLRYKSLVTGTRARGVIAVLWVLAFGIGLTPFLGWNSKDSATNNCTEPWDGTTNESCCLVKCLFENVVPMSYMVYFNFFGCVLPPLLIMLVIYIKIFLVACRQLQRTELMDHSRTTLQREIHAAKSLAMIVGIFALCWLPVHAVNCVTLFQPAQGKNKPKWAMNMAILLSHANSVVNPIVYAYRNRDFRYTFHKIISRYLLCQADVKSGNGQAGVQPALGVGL
Method: (§1) Affinities for adenosine receptors were evaluated in radioligand binding assays as previously described. Human adenosine receptors were stably expressed in CHO cells. The following radioligands were used: [^3H]2-chloro-N^6-cyclopentyladenosine ([^3H]CCPA) for A1R; [^3H]3-(3-hydroxypropyl)-7-methyl-8-(m-methoxystyryl)-1-propargylxanthine ([^3H]MSX-2) for A2AR; [^3H]8-(4-(4-(4-chlorophenyl)piperazine-1-sulfonyl)phenyl)-1-propylxanthine ([^3H]PSB-603) for A2BR; [^3H]phenyl-8-ethyl-4-methyl-(8R)-4,5,7,8-tetrahydro-1H-imidazo [2,1-i]purine-5-one ([^3H]PSB-11) for A3R. Initially, compounds were tested at a concentration of 1 µM. […] At least three independent experiments were performed. Data were analyzed using GraphPad PRISM version 5.0 or higher (Graph Pad, San Diego, CA, USA). Ki were calculated using the Cheng–Prusoff equation.

human adenosine A1R = molecular target: T2, human adenosine A1R (Homo sapiens, UniProt P30542); assay: Radioligand binding at human adenosine A1 receptor vs. [3H]CCPA; settings: human recombinant receptor in CHO cells; read-out: A1R vs. [³H]CCPA Ki ± SEM
T2 construct: expressed in transfected cells; host or cells: CHO cells
T2 sequence (P30542 1-326): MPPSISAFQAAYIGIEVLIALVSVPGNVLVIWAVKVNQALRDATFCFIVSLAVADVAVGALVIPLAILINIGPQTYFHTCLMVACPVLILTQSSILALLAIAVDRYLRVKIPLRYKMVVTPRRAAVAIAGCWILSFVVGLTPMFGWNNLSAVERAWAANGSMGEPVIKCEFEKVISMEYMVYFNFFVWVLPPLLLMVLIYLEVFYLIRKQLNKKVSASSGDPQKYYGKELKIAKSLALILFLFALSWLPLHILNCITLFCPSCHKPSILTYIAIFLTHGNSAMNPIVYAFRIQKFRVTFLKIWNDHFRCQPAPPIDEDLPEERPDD
Method: as §1

human MAO B = molecular target: T3, human MAO B (Homo sapiens, UniProt P27338); assay: Human MAO B inhibition, fluorometric method; assay type: biochemical; settings: mean of two independent experiments, read-out: % of hMAO B Inhibition at 1 µM
T3 sequence (P27338 1-520): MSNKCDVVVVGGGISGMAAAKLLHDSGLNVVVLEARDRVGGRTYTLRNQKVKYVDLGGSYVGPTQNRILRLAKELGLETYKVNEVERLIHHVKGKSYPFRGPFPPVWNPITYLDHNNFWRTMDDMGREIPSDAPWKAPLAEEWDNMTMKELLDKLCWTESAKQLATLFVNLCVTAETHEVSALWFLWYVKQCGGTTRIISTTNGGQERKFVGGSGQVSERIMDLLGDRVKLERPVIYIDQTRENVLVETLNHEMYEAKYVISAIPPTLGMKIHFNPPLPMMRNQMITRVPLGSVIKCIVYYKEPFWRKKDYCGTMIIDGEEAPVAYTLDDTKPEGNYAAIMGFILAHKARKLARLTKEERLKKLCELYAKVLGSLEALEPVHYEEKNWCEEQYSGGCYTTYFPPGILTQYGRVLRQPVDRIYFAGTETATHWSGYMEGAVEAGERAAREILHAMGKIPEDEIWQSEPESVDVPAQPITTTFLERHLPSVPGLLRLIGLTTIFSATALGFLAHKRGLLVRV
Method: The compounds were tested twice in duplicates at a concentration of 1 μM by fluorometric method as previously described. Paratyramine (200 μM) was used as a substrate for the enzyme. Safinamide (1 μM; reversible) and rasagiline (1 μM; irreversible) were used as reference inhibitors.

human adenosine A3R = molecular target: T4, human adenosine A3R (Homo sapiens, UniProt P0DMS8); assay: Radioligand binding at human adenosine A3 receptor vs. [3H]PSB-11; settings: for inhibition at 1 µM: CHO cells, read-out: A3R vs. [H³]PSB-11 % Inhibition ± SEM at 1 µM; for Ki: human recombinant receptor in CHO cells, read-out: A3R vs. [H³]PSB-11 Ki ± SEM
T4 construct: expressed in transfected cells; host or cells: CHO cells
T4 sequence (P0DMS8 1-318): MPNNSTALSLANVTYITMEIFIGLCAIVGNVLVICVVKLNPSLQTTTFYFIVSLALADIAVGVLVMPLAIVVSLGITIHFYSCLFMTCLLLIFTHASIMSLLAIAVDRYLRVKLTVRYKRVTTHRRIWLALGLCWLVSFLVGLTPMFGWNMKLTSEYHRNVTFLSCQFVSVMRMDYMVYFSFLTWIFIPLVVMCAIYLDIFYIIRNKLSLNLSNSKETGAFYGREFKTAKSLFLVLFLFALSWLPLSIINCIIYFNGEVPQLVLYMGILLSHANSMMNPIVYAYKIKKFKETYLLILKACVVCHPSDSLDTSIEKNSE
Method: as §1

inhibition at 1 µM (human adenosine A2BR) [%] | Ki (human adenosine A2BR) [nM] | Ki (human adenosine A1R) [nM] | inhibition at 1 µM (human MAO B) [%] | inhibition at 1 µM (human adenosine A3R) [%] | Ki (human adenosine A3R) [nM] | SMILES
14 | > 1000 | 407 ± 75 | 6 | 9 | > 1000 | C#CCn1c(=O)c2c(nc(NCc3ccccc3Cl)n2C)n(C)c1=O [compound 19, 8-((2-Chlorobenzyl)amino)-3,7-dimethyl-1-(prop-2-yn-1-yl)-3,7-dihydro-1H-purine-2,6-dione]
41 | > 1000 | 130 ± 34 | 7 | 21 | > 1000 | C#CCn1c(=O)c2c(nc(NCc3c(F)cccc3Cl)n2C)n(C)c1=O [compound 22, 8-((2-Chloro-6-fluorobenzyl)amino)-3,7-dimethyl-1-(prop-2-yn-1-yl)-3,7-dihydro-1H-purine-2,6-dione]
25 | > 1000 | 72 ± 8 | 10 | 7 | > 1000 | C#CCn1c(=O)c2c(nc(NCc3cccc(Br)c3)n2C)n(C)c1=O [compound 24, 8-((3-Bromobenzyl)amino)-3,7-dimethyl-1-(prop-2-yn-1-yl)-3,7-dihydro-1H-purine-2,6-dione]
